Source: US20220125765A1, “PHARMACEUTICAL COMBINATIONS COMPRISING MEBENDAZOLE AND A STRONG OR MODERATE CYP1A2 INHIBITOR” (ZEPHAPHARM LTD, priority 2019, published 2022)
Where two headings read alike, the source gives them in different places.

Columns and labels:
Format in all cases: cell-based
[1] = tested on: OVXF 1023L; experiment: 2D monolayer CellTiter-Blue viability, ovarian cancer OVXF 1023L; settings: for Test/Control (%) at Drug Concentration: 72 h
Method: (§1) Mebendazole was tested in vitro across a panel of 12 tumor cell lines of ovarian and renal cancer by using a 2D monolayer assay. […] OVXF 899L and RXF 486L are P-gp expressing, multidrug resistant cell lines.
(§2) Anti-tumor activity is expressed as absolute and relative IC50/70 values, calculated by 4-parameter non-linear curve fit.

[2] = tested on: OVCAR-5; experiment: 2D monolayer CellTiter-Blue viability, ovarian cancer OVCAR-5; settings: for IC50: Homo sapiens; for Test/Control (%) at Drug Concentration: 72 h
Method: as §1, §2

[3] = tested on: RXF 1183L; experiment: 2D monolayer CellTiter-Blue viability, renal cancer RXF 1183L; settings: for Test/Control (%) at Drug Concentration: 72 h
Method: as §1, §2

[4] = tested on: RXF 2282L; experiment: 2D monolayer CellTiter-Blue viability, renal cancer RXF 2282L; settings: for Test/Control (%) at Drug Concentration: 72 h
Method: as §1, §2

COC(=O)Nc1nc2ccc(C(=O)c3ccccc3)cc2[nH]1 [Mebendazole, methyl N-(6-benzoyl-1H-benzimidazol-2-yl)carbamate]
Test/Control (%) at Drug Concentration ([1]; OVXF 1023, 1.0E−04 μM): 107%
Test/Control (%) at Drug Concentration ([1]; OVXF 1023, 3.2E+00 μM): 62%
Test/Control (%) at Drug Concentration ([1]; OVXF 1023, 3.2E−01 μM): 82%
Test/Control (%) at Drug Concentration ([1]; OVXF 1023, 3.2E−02 μM): 98%
Test/Control (%) at Drug Concentration ([1]; OVXF 1023, 3.2E−03 μM): 101%
Test/Control (%) at Drug Concentration ([1]; OVXF 1023, 3.2E−04 μM): 103%
Abs. IC70 ([1]; OVXF 1023, 72 h): >3200 nM
Rel. IC70 ([1]; OVXF 1023, 72 h): >3200 nM
Bot. (%) ([1]; OVXF 1023, 72 h, curve fit): 2%
Top (%) ([1]; OVXF 1023, 72 h, curve fit): 105%
IC50 ([2]; OVCAR-5, 72 h, read-out: Abs. IC50): 865 nM
IC50 ([2]; OVCAR-5, 72 h, read-out: Rel. IC50): 732 nM
Test/Control (%) at Drug Concentration ([2]; OVCAR-5, 1.0E+00 μM): 42%
Test/Control (%) at Drug Concentration ([2]; OVCAR-5, 1.0E−01 μM): 90%
Test/Control (%) at Drug Concentration ([2]; OVCAR-5, 1.0E−02 μM): 102%
Test/Control (%) at Drug Concentration ([2]; OVCAR-5, 1.0E−03 μM): 103%
Test/Control (%) at Drug Concentration ([2]; OVCAR-5, 1.0E−04 μM): 102%
Test/Control (%) at Drug Concentration ([2]; OVCAR-5, 3.2E+00 μM): 22%
Test/Control (%) at Drug Concentration ([2]; OVCAR-5, 3.2E−01 μM): 91%
Test/Control (%) at Drug Concentration ([2]; OVCAR-5, 3.2E−02 μM): 95%
Test/Control (%) at Drug Concentration ([2]; OVCAR-5, 3.2E−03 μM): 92%
Test/Control (%) at Drug Concentration ([2]; OVCAR-5, 3.2E−04 μM): 96%
Abs. IC70 ([2]; OVCAR-5, 72 h): 1480 nM
Rel. IC70 ([2]; OVCAR-5, 72 h): 995 nM
Bot. (%) ([2]; OVCAR-5, 72 h, curve fit): 20%
Top (%) ([2]; OVCAR-5, 72 h, curve fit): 97%
Test/Control (%) at Drug Concentration ([3]; RXF 1183, 1.0E+00 μM): 54%
Test/Control (%) at Drug Concentration ([3]; RXF 1183, 1.0E−01 μM): 79%
Test/Control (%) at Drug Concentration ([3]; RXF 1183, 1.0E−02 μM): 91%
Test/Control (%) at Drug Concentration ([3]; RXF 1183, 1.0E−03 μM): 93%
Test/Control (%) at Drug Concentration ([3]; RXF 1183, 1.0E−04 μM): 91%
Test/Control (%) at Drug Concentration ([3]; RXF 1183, 3.2E+00 μM): 32%
Test/Control (%) at Drug Concentration ([3]; RXF 1183, 3.2E−01 μM): 58%
Test/Control (%) at Drug Concentration ([3]; RXF 1183, 3.2E−02 μM): 80%
Test/Control (%) at Drug Concentration ([3]; RXF 1183, 3.2E−03 μM): 88%
Test/Control (%) at Drug Concentration ([3]; RXF 1183, 3.2E−04 μM): 88%
Abs. IC70 ([3]; RXF 1183, 72 h): >3200 nM
Rel. IC70 ([3]; RXF 1183, 72 h): >3200 nM
Bot. (%) ([3]; RXF 1183, 72 h, curve fit): 0%
Top (%) ([3]; RXF 1183, 72 h, curve fit): 91%
IC50 ([3]; RXF 1183, 72 h, read-out: Abs. IC50): 925 nM
IC50 ([3]; RXF 1183, 72 h, read-out: Rel. IC50): 1310 nM
Test/Control (%) at Drug Concentration ([4]; RXF 2282, 1.0E+00 μM): 71%
Test/Control (%) at Drug Concentration ([4]; RXF 2282, 1.0E−01 μM): 83%
Test/Control (%) at Drug Concentration ([4]; RXF 2282, 1.0E−02 μM): 84%
Test/Control (%) at Drug Concentration ([4]; RXF 2282, 1.0E−03 μM): 88%
Test/Control (%) at Drug Concentration ([4]; RXF 2282, 1.0E−04 μM): 108%
Test/Control (%) at Drug Concentration ([4]; RXF 2282, 3.2E+00 μM): 57%
Test/Control (%) at Drug Concentration ([4]; RXF 2282, 3.2E−01 μM): 77%
Test/Control (%) at Drug Concentration ([4]; RXF 2282, 3.2E−02 μM): 86%
Test/Control (%) at Drug Concentration ([4]; RXF 2282, 3.2E−03 μM): 89%
Test/Control (%) at Drug Concentration ([4]; RXF 2282, 3.2E−04 μM): 92%
Abs. IC70 ([4]; RXF 2282, 72 h): >3200 nM
Rel. IC70 ([4]; RXF 2282, 72 h): >3200 nM
Bot. (%) ([4]; RXF 2282, 72 h, curve fit): 0%
Top (%) ([4]; RXF 2282, 72 h, curve fit): 102%
IC50 ([4]; RXF 2282, 72 h, read-out: Abs. IC50): > 3200 nM
IC50 ([4]; RXF 2282, 72 h, read-out: Rel. IC50): > 3200 nM
